Data: US8138191B2, “Inhibitor compounds and cancer treatment methods” (Critical Outcome Technologies Inc., priority 2007, dated 2012)

Key:
SHP77 cells = assay: AKT/AKT2 siRNA then COTI-2, cell viability by MTT assay, SHP77; assay type: cell-based, human; conditions: SHP 77
Description: (§1) Cell cultures were maintained under regular tissue culture conditions and passaged 1-2 times a week as recommended by ATCC. For siRNA experiments the manufacturer's conditions for growth and transfection were followed. All siRNA reagents for AKT and AKT2 transfections were obtained from Cell Signaling.
(§2) Cells were treated for 48 h with 0-100 ng of AKT or AKT2 siRNA before incubation with COTI-2 at various concentrations (0-500 nM). Following incubation for 48 h, cell viability was determined by MTT assay.

dog plasma = assay: in vitro; assay type: in vitro ADME; conditions: mixed breeds, 10 µM
Description: Commercially obtained (Rockland Immunochemicals Inc.), non-sterile, species-specific plasma (human, monkey, and dog) with sodium anticoagulant added was utilized for this study. […] Dialysis membrane strips (12-14K MWCO) were presoaked in water and ethanol, rinsed and then kept in buffer until use. Following assembly of the 96-well dialysis apparatus, […] membrane strips placed between the dialysis and sample compartments. The dialysate compartment was loaded with 0.15 ml phosphate buffer was added to the dialysis side of each well. Plasma (unfiltered) was spiked with 10 μM COTI-2 (1% DMSO) and 0.15 ml added to the sample side of each well. After loading, samples are covered and incubated at 37° C. until equilibrium was reached (at least 8 hours). Equal volumes of sample were removed from the buffer and plasma sides of each well, diluted with acetonitrile/buffer and centrifuged. Also at this time an additional sample was prepared (in duplicate) by spiking COTI-2 in plasma at 10 μM, followed by sampling and diluting in acetonitrile/buffer in the same manner as the incubated plasma sample. This calibration sample served as the basis of a recovery determination. The supernatants were analyzed by HPLC-MS/MS and the peak response of COTI-2 in both dialysis and sample compartments, and in the calibration sample, were subsequently determined in two independent replicates. […] The HPLC conditions consist of a binary LC pump with autosampler, a C18 column (2×20 mm), and gradient elution. The percent bound to plasma/serum proteins and percent recovery of the compounds were calculated. The recovery determination serves as an indicator as to the reliability of the calculated protein binding value.

DMS114 cells [1] = assay: AKT/AKT2 siRNA then COTI-2, cell viability by MTT assay, DMS114; assay type: cell-based, human; conditions: DMS114, 500 nM COTI-2
Description: as §1, §2

CYP2E1 = CYP2E1 (Homo sapiens, UniProt P05181); assay: CYP2E1 Inhibition (HLM, chlorzoxanzone substrate)
[2] = Metabolic Stability (liver microsomes, dog, Beagle); assay type: in vitro ADME; conditions: 1.0E−06 M, 60 min
Description: Metabolic stability was determined in human (mixed gender and pool of 50) monkey (male Cynomolgus, pool of 6 or more), dog male, beagle, pool of 4 or more) and rat (male Sprague-Dawley, pool of 100 or more) liver microsomes. […] Four reference substrates (1 μM) were tested simultaneously with COTI-2. […] Peak areas corresponding to COTI-2 were recorded by HPLC-MS/MS. Metabolic stability, expressed as percent of COTI-2 remaining, was calculated by comparing the peak area of COTI-2 at 60 min to time zero.

rat plasma = assay: in vitro; assay type: in vitro ADME; conditions: mixed breeds, 10 µM
in vitro = in vitro ADME; conditions: mixed breeds, rat
DMS114 cells [3] = assay: Cell cycle analysis of DMS114 cells by FACS; assay type: cell-based, human; conditions: DMS114, 1.5 μM, 24 h
Description: Approximately 2×10^5 DMS114 cells were incubated for 24 h with the indicated concentrations of COTI-219. Following incubation with COTI-219 the cells were washed and re-suspended in 0.5 ml of BP Pharmingen Propidium Iodide staining solution (Cat. No. 556463) for FACS analysis in order to determine the changes in the cell cycle.

DMS114 cells [4] = assay: siRNA target knock-down with COTI-219, cell viability by trypan blue, DMS114; assay type: cell-based, human; conditions: DMS114, 500 nM, 48 h
Description: In brief, cells DMS114 and SHP77 cells were transfected with gene specific siRNA in the presence or absence of COTI-219 and cell viability determined after 24 to 48 h post-incubation using the trypan blue exclusion method.
Cell cultures were maintained under regular tissue culture conditions and passaged 1-2 times a week as recommended by ATCC. With the exception of the siRNA for Bim (Signal Silence Bim siRNA kit #6460 from Cell Signaling), all other siRNA reagents for gene knock-down experiments was obtained from Ambion (Silencer Negative Control #1 siRNA #AM4611, CDK2 Silencer Select #s204, HRAS Silencer Select #s807, Protein kinase C alpha Silencer Validated #301, MAPK3/Erk Silencer Pre-designed #214749, EGFR Silencer Select #s563, and ERBB2 Silencer Select #s611). […] The transfection method required optimization such that a knock-down of the target gene greater than ˜75% was achieved and confirmed by western blot analyses. […] Following an optimal knock-down level at >75%, 2×10^5 cells were incubated with 500 nM COTI-219 and number of viable cells was measured at 48 h.
Cell viability assays were performed 24 to 48 h following incubation with COTI-219 by the trypan blue exclusion method using a Beckman-Coulter Vi-CELL XR 2.03 automated cell counter. Routine laboratory methods were employed for the production of cellular lysates, protein quantitation, SDS-PAGE and western blotting. […]

Chain of CYP2E1 (P05181 whole entry): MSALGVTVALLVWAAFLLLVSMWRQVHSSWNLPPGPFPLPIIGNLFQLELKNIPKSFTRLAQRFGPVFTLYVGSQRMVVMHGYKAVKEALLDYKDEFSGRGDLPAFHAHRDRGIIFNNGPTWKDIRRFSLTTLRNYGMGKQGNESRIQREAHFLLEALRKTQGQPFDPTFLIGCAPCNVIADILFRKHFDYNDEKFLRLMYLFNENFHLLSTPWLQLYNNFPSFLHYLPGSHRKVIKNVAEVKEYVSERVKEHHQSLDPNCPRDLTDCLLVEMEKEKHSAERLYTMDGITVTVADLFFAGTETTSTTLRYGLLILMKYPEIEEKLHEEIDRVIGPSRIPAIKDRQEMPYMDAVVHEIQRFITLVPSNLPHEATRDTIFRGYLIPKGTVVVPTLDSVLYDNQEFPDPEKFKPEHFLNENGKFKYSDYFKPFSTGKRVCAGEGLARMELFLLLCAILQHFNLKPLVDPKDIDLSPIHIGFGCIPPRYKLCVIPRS

Compound	cell death with total AKT or AKT2 siRNA, presence vs absence of COTI-2 (SHP77 cells)	% Protein Bound 1st (dog plasma) [%]	% Protein Bound 2nd (dog plasma) [%]	% Protein Bound Mean (dog plasma) [%]	percent protein bound (dog plasma) [%]	cytotoxicity after AKT2 knock-down by siRNA (DMS114 cells [1])	percent inhibition (CYP2E1; CYP2E1, 10 μM)	% Inhibition of Control Values (CYP2E1; CYP2E1, HLM, chlorzoxazone substrate, 1.0E−05 M) [%]	Mean Parent Remaining [2] [%]	% Protein Bound 1st (rat plasma) [%]	% Protein Bound 2nd (rat plasma) [%]	% Protein Bound Mean (rat plasma) [%]	percent protein bound (rat plasma) [%]	recovery at 10 µM (in vitro; % Recovery 1st) [%]	recovery at 10 µM (in vitro; % Recovery 2nd) [%]	recovery at 10 µM (in vitro; % Recovery Mean) [%]	recovery at 10 µM (in vitro; percent recovery) [%]	cell cycle effect (DMS114 cells [3])	target knock-downs suppressing the action of COTI-219 on apoptosis/cell growth (DMS114 cells [4])
S=C(N/N=C1/CCCc2cccnc21)N1CCN(c2ccccn2)CC1 [COTI-2]	no significant difference in cell death	99.1	99.7	99.4	> 99	unable to exert additional significant cytotoxicity	below 50%	−2	5	>99.9	>99.9	>99.9	> 99	16.4	25.1	20.7	< 50	–	–
CN1CCN(C(=S)NN=C2c3ncccc3-c3cccnc32)CC1 [COTI-219]	–	–	–	–	–	–	–	–	–	–	–	–	–	–	–	–	–	cell cycle arrest in G1	only the Ras knock-down was able to suppress the action of COTI-219
